# Data: US20230390273A1, “4-PHENYL-TETRAHYDROPYRIDINE DERIVATIVES FOR TREATING HEARING DISEASES” (CILCARE DEV, priority 2021, published 2023)
# Structures can show the parent of a compound that is named as a salt.
# Tests used:
# [1] = test system: male Wistar rats; experiment: ABR/DPOAE assessment, noise-induced permanent hearing loss, immediate trans-tympanic treatment (Example 6); type: in vivo; details: T0+28 days, versus traumatized animals untreated or vehicle; treatment 2 hours and 8 days post-noise
# Protocol: Fifty male Wistar rats were selected and distributed to treatment (“traumatized paliroden” group and “traumatized xaliproden” group) and control groups (“sham” group, “traumatized” group and “traumatized vehicle” group), each group comprising at least 9 rats at the end of the study. Randomization was performed using the ABR threshold in the left ear at 16 kHz as a criterium. The “sham” group consists in rats (n=11) that received neither noise exposure nor trans-tympanic injection. The “traumatized” group consists of rats (n=9) that received noise exposure only and no treatment. The “traumatized vehicle” group consists in rats (n=10) that received noise exposure and trans-tympanic injection in both ears of 30 μL of placebo (a composition comprising Poloxamer 407 (7,2% w/w), Poloxamer 188 (8% w/w) and Cremophor EL® (20% w/w) in phosphate buffer pH=7.4, the percentages being expressed relative to the total weight of the composition) between the eardrum and the round window by means of a needle which crosses the eardrum, 4 hours after the start of the noise exposure (i.e. injection of placebo at T0+4 hours, thus 2 hours after the end of the noise exposure) and 8 days post-noise exposure, under isoflurane anesthesia. […]
# [2] = Solubility of paliroden and xaliproden in trans-tympanic compositions and in water (Example 2); type: physicochemical
# Protocol: Eight compositions compatible with trans-tympanic injections were prepared: four thermoreversible gel compositions and four lipid-based mucoadhesive solutions. These eight compositions were prepared both with paliroden fumarate as active agent, and with xaliproden hydrochloride as active agent. The solubility of respectively paliroden and xaliproden in the compositions was measured.
# [3] = test system: male CBA/CaJ mice; experiment: ABR Wave I amplitude after noise-induced temporary hearing loss (Example 8); type: in vivo
# Protocol: Twelve male CBA/CaJ mice were selected and evenly distributed to treatment and control groups, each group comprising 4 mice at the end of the study. Randomization was performed using the ABR threshold in the left ear at 16 kHz as a criterium. The “sham” group consists in mice (n=4) that received neither noise exposure nor trans-tympanic injection. The “Traumatized” group consists in mice (n=4) that received noise exposure only. The “traumatized paliroden” group consists in mice (n=4) that received noise exposure and trans-tympanic injections of a composition comprising paliroden (fumarate salt), corresponding to composition 4P described in Example 2.
# All animals (except sham group) received a bilateral noise exposure at a noise band of 8-16 kHz at 95 dB SPL RMS during 2 hours (from time T0 to time T0+2 hours) in awake conditions.
# Five microliters of a composition comprising paliroden as active agent were administered once in both ears of each mice of the treatment groups (5 μL per ear) via trans-tympanic administration by injection between the eardrum and the round window by means of a needle which crosses the eardrum, 24 hours post noise exposure, under isoflurane anesthesia. […]
solubility [2] [µg/mL],SMILES,"Effect on ABR thresholds, DPOAE amplitudes, ABR Wave I amplitudes [1]","Recovery of the ABR Wave I amplitudes ([3]; 5 weeks post-noise, 16, 25, 32, 40, 45 kHz, paliroden 50 μg/ear one day post-noise)","ABR Wave I amplitude recovery in comparison to traumatized untreated mice, subset analysis ([3]; 25, 32, 40 and 45 kHz, p values <0.001)"
< 100,"FC(F)(F)c1cccc(C2=CCN(CCc3ccc(-c4ccccc4)cc3)CC2)c1 [paliroden (fumarate salt), 1-[2-(4-biphenylyl)ethyl]-4-(3-trifluoromethylphenyl)-1,2,3,6-tetrahydropyridine]",did not show effect,complete recovery,statistically significant
< 100,"FC(F)(F)c1cccc(C2=CCN(CCc3ccc4ccccc4c3)CC2)c1 [xaliproden (hydrochloride salt), 1-[2-(2-naphthyl)ethyl]-4-(3-trifluoromethylphenyl)-1,2,3,6-tetrahydropyridine]",did not show effect,,
